Measured values as given in patent publication US20250146011A1, “HERBICIDE-RESISTANT CAMELINA SATIVA PLANTS, AND VARIANT CAMELINA ACETOHYDROXYACID SYNTHASE POLYPEPTIDES” (Smart Earth Camelina Corp., priority 2019, published 2025).
“And” between values parts separate entries of the source, which are not always exact repeats. Equal values may be shown once.

Key:
Assay in all cases: AHAS product feedback inhibition assay
Type in all cases: biochemical, Camelina sativa
AHAS of 14CS0851-01-14 = conditions: for sensitivity of AHAS to feedback inhibition, comparison of enzyme extracts: 14CS0851-01-14 vs SRS 934 and MIDAS, 1 mM, 10 mM; for Absorbance reading (530 nm), raw data: single reps
Protocol: (§1) Briefly, for each of the three comparators, leaf and stem (petiole) material was bulk-harvested at the 3-4 leaf stage from at least 30 plantlets, snap-frozen in liquid nitrogen, and stored at −80° C. The AHAS in vitro assay was conducted according to the method of Singh et al (1988), with modifications by Yu (2010) and Rustgi (2014). For each comparator, 4 grams of frozen material were ground to a fine powder with a mortar and pestle in liquid nitrogen and homogenized in 1 volume of cold extraction buffer containing 100 mM potassium phosphate buffer (pH7.5), 10 mM sodium pyruvate, 5 mM MgCl2, 100 μM flavin adenine dinucleotide (FAD), and 10% glycerol. Four 2-mL microcentrifuge tubes were used for each comparator. The homogenate was centrifuged at 13,000 rpm for 10 min at 4° C., supernatant collected and re-centrifuged for an additional 10 minutes under the same conditions. For each tube, 1 mL of supernatant was pipetted into a new 2-mL microcentrifuge tube, and protein was precipitated by the addition of 1 mL of saturated ammonium sulfate. The solution was mixed well by vortex and allowed to stand on ice for 20 minutes, then centrifuged at 13,000 rpm at 4° C. The protein pellet was resuspended in 300 μL of reaction buffer containing 50 mM potassium phosphate buffer (pH7.5), 100 mM sodium pyruvate, 10 mM MgCl2, 1 mM EDTA, 10 μM FAD, 100 mM NaCl, and 1 mM thiamine pyrophosphate. Tubes of each comparator were combined, mixed well, kept on ice and immediately used in the AHAS activity and feedback inhibition assays.
(§2) Total protein concentration of the crude extract was determined by the Bradford method (Bradford, 1976). All assays were conducted using 300 μg of total protein each.
(§3) […] (2010). The reaction mixture contained 50 μL enzyme extract and 50 μL 100 mM sodium pyruvate and inhibitor amino acid. The reaction was incubated at 37° C. for 60 minutes, then stopped and acetolactate converted to acetoin with the addition of 20 μL of 6 N H2SO4 and incubated at 60° C. for 15 minutes. A separate background “blank” was included for each sample group by adding 20 μL of 6 N H2SO4 prior to the addition of the enzyme extracts. Then, 95 μL of 0.55% w/v creatine solution and 95 μL of α-naphthol solution (5.5% w/v in 5 N NaOH) were added and the mixture incubated at 60° C. for a further 15 minutes. After cooling to room temperature for 15 minutes, enzyme activity was determined colorimetrically by reading the absorbance at 530 nm. Three independent experiments were conducted. Experiment 1 and 2 each contained 2 technical replicates, while experiment 3 included 3 technical replicates.

AHAS of MIDAS = conditions: 10 mM amino acid; for Absorbance reading (530 nm), raw data: single reps
Protocol: as §1, §2, §3

AHAS of SRS 934 = conditions: 10 mM amino acid; for Absorbance reading (530 nm), raw data: single reps
Protocol: as §1, §2, §3

sensitivity of AHAS to feedback inhibition, comparison of enzyme extracts (AHAS of 14CS0851-01-14; 100 mM amino acid) | Structure (SMILES) | Absorbance reading (530 nm), AVG of reps (AHAS of 14CS0851-01-14; Experiment 1, 100 mM amino acid) | Absorbance reading (530 nm), AVG of reps (AHAS of 14CS0851-01-14; Experiment 2, 10 mM amino acid) | Absorbance reading (530 nm), raw data (AHAS of 14CS0851-01-14; Experiment 2, 10 mM amino acid) | Absorbance reading (530 nm), raw data (AHAS of 14CS0851-01-14; Experiment 2, 100 mM amino acid) | Absorbance reading (530 nm), AVG of reps (AHAS of 14CS0851-01-14; Experiment 3, 10 mM amino acid) | Absorbance reading (530 nm), raw data (AHAS of 14CS0851-01-14; Experiment 3, 10 mM amino acid) | Absorbance reading (530 nm), AVG of reps (AHAS of MIDAS; Experiment 1) | Absorbance reading (530 nm), raw data (AHAS of MIDAS; Experiment 1) | Absorbance reading (530 nm), AVG of reps (AHAS of MIDAS; Experiment 2) | Absorbance reading (530 nm), raw data (AHAS of MIDAS; Experiment 2) | Absorbance reading (530 nm), raw data (AHAS of MIDAS; Experiment 2, listed as Valine) | Absorbance reading (530 nm), AVG of reps (AHAS of MIDAS; Experiment 3) | Absorbance reading (530 nm), raw data (AHAS of MIDAS; Experiment 3) | Absorbance reading (530 nm), AVG of reps (AHAS of SRS 934; Experiment 1) | Absorbance reading (530 nm), raw data (AHAS of SRS 934; Experiment 1) | Absorbance reading (530 nm), AVG of reps (AHAS of SRS 934; Experiment 2) | Absorbance reading (530 nm), raw data (AHAS of SRS 934; Experiment 2, listed as Valine) | Absorbance reading (530 nm), AVG of reps (AHAS of SRS 934; Experiment 3) | Absorbance reading (530 nm), raw data (AHAS of SRS 934; Experiment 3)
no significant difference | CC(C)C[C@H](N)C(=O)O [leucine] | 0.143 |  |  |  |  |  |  |  |  |  |  |  |  |  |  |  |  |  | 
no significant difference | CC(C)[C@H](N)C(=O)O [valine] |  | 0.178 | 0.190 | 0.333 | 0.073 | 0.057 and 0.084 | 0.214 | 0.205 and 0.223 | 0.191 | 0.217 | 0.165 | 0.112 | 0.133 and 0.110 and 0.112 | 0.184 | 0.186 and 0.182 | 0.179 | 0.206 and 0.151 | 0.093 | 0.091
